Laboratory results from article PMC9697330, “Co-Delivery of 8-Hydroxyquinoline Glycoconjugates and Doxorubicin by Supramolecular Hydrogel Based on α-Cyclodextrin and pH-Responsive Micelles for Enhanced Tumor Treatment” (Pharmaceutics, 2022).
Where two headings read alike, the source gives them in different places.

Legend:
[1] = system: NHDF-Neo (Normal Human Dermal Fibroblasts-Neonatal); assay: MTT assay, cytotoxicity against NHDF-Neo cells; format: cell-based
Text: (§1) The human breast adenocarcinoma cell line (MCF-7) was received from collections at the Maria Skłodowska-Curie Memorial Cancer Center and Institute of Oncology (Gliwice, Poland). The Normal Human Dermal Fibroblasts—Neonatal (NHDF-Neo) were purchased from LONZA (Cat. No. CC-2509, Lonza, Poland). The culture media consisted of DMEM + F12 medium, with 5% antibiotics (penicillin and streptomycin) and 10% fetal bovine serum. The culture media was bought from HyClone. Fetal bovine serum (FBS) was purchased from Eurx, Poland. Antibiotic Antimycotic Solution (100×) was purchased from Sigma-Aldrich, Germany.
(§2) The cytotoxicity of blank and drug-loaded SMH were evaluated using the MTT assay (Merck, Darmstadt, Germany). Briefly, human breast adenocarcinoma (MCF-7) or Normal Human Dermal Fibroblasts-Neonatal (NHDF-Neo) cells were seeded into 96-well plates at a concentration of 5 × 10^3 per well. The cell cultures were incubated for 24 h at 37 °C in a humidified atmosphere of 5% CO2. Afterward, the culture medium was removed, replaced with tested formulations, in a medium with varying concentrations, and incubated further for 24, 48, or 72 h, respectively. After that, the medium was removed and the MTT solution was added (0.5 mg·mL^−1 in PBS). After three hours of incubation, the MTT solution was taken off and the precipitated formazan was dissolved in dimethylsulfoxide. The absorbance was measured at 570 nm using a plate reader (Epoch, BioTek, Winooski, VT, USA). The experiments were performed in at least three independent repetitions, with four technical repeats for each tested concentration. The IC50 values were calculated using CalcuSyn software (ver. 2.0, Biosoft, Cambridge, UK). The IC50 parameter was defined as the compound concentration that was necessary to reduce the proliferation of cells to 50% of the untreated control. The results are presented as average values with standard deviations. […] Values of CI < 1 represent synergism; CI = 1 represents an additive interaction (i.e., no interaction); and CI > 1 represents antagonism.

[2] = system: MCF-7 (human breast adenocarcinoma cell line); assay: MTT assay, cytotoxicity against MCF-7 cells; format: cell-based
Text: as §1, §2

[3] = NMR titration for host-guest inclusion complex of 8HQ-Glu with α-CD; format: physicochemical; conditions: D2O, α-CD 10 mM, 8HQ-Glu 1 to 20 mM, 24 h at rt
Protocol: SMHs were prepared based on the host–guest interaction between the PEG chains of mPEG-b-PKPC or mPEG-b-PTMC micelles and α-CD. Typically, the lyophilized micelles were resuspended (15 mg·mL^−1) in PBS at pH 7.4, as a hydrogel precursor. Then, the same volume of 12% solution of α-CD in PBS was added to the micelle solution. The mixture was vortexed for 1 min followed by sonication for 1 min. The resultant mixture was allowed to stand still overnight for solidification. Firstly, gelation was visually observed by a simple vial inversion method. […] Thus, SMHs obtained (mPEG-b-PKPC^SMH or mPEG-b-PTMC^SMH) were used for characterization studies without any further modification. The transmittance of the α-CD and mPEG-b-PKPC^mic solution, measured at predetermined time intervals at 650 nm, immediately after mixing, was studied using a UV-Vis spectrophotometer JASCO V-570 (Tokyo, Japan). To confirm the formation of supramolecular hydrogels, the samples of mPEG5k, α-CD, mPEG-b-PKPC, or mPEG-b-PTMC, the lyophilized mPEG-b-PKPC^mic, or mPEG-b-PTMC^mic, the physical mixture of α-CD with the respective micelles, and freeze-dried SMHs were studied using the X-ray diffraction method (XRD). […] The samples were incubated for 24 h at rt with gentle shaking and the NMR spectra were measured.

| SMILES | IC50 ([1]; 24 h incubation, read-out: Activity IC50, as DOX concentration) [µM] | IC50 ([1]; 48 h incubation, read-out: Activity IC50, as DOX concentration) [µM] | IC50 ([1]; 72 h incubation, read-out: Activity IC50, as DOX concentration) [µM] | IC50 ([2]; MCF-7, 24 h incubation, read-out: Activity IC50, as DOX concentration) [µM] | IC50 ([2]; MCF-7, 48 h incubation, read-out: Activity IC50, as DOX concentration) [µM] | IC50 ([2]; MCF-7, 72 h incubation, read-out: Activity IC50, as DOX concentration) [µM] | IC50 ([1]; Homo sapiens, 24 h incubation, read-out: Activity IC50, as 8HQ-Glu concentration) [µM] | IC50 ([1]; Homo sapiens, 48 h incubation, read-out: Activity IC50, as 8HQ-Glu concentration) [µM] | IC50 ([1]; Homo sapiens, 72 h incubation, read-out: Activity IC50, as 8HQ-Glu concentration) [µM] | Host-guest inclusion complex formation with α-CD (in words) [3] | IC50 ([2]; Homo sapiens, MCF7, MCF-7, 24 h incubation, read-out: Activity IC50, as 8HQ-Glu concentration) [µM] | IC50 ([2]; Homo sapiens, MCF7, MCF-7, 48 h incubation, read-out: Activity IC50, as 8HQ-Glu concentration) [µM] | IC50 ([2]; Homo sapiens, MCF7, MCF-7, 72 h incubation, read-out: Activity IC50, as 8HQ-Glu concentration) [µM] |
| --- | --- | --- | --- | --- | --- | --- | --- | --- | --- | --- | --- | --- | --- |
| COc1cccc2c1C(=O)c1c(O)c3c(c(O)c1C2=O)C[C@@](O)(C(=O)CO)C[C@@H]3O[C@H]1C[C@H](N)[C@H](O)[C@H](C)O1 [DOX, doxorubicin] | > 20 | 9.8 | 0.39 | 8.73 | 0.81 | 0.15 | – | – | – | – | – | – | – |
| OC1O[C@H](Cn2cc(COc3cccc4cccnc34)nn2)[C@@H](O)[C@H](O)[C@H]1O (stereo partly drawn) [8HQ-Glu, 6-(4-(8-quinolinyloxymethyl)-1H-1,2,3-triazol-1-yl)-6-deoxy-D-glucopyranose] | – | – | – | – | – | – | > 200 | > 200 | > 200 | no inclusion complex formation | 168 | 128 | 55.3 |
